Reference: article PMC11402852, “Genotoxicity of selected cannabinoids in human lymphoblastoid TK6 cells” (Archives of Toxicology, 2024)
Read-outs that look alike come from different tables or passages of the source.

Key:
[1] = system: TK6 cells; assay: Mitotic disturbance assay; type: cell-based, human; conditions: 6 h, without S9; CBG 30 µM, CBD 15 µM, CBC 15 µM, CBDV 40 µM, CBN 15 µM; vs solvent control
Description: The cells were treated for 6 h with CBG 30 µM, CBD 15 µM, CBC 15 µM, CBDV 40 µM, and CBN 15 µM. The positive control was vincristine sulphate 0.0121 µM, and the solvent control was DMSO. For the experiments with or without the S9 mix (final concentration 0.25%), TK6 cells were treated with either CBDV 40 µM or vincristine sulphate 10 ng/mL for 6 h. DMSO with or without S9 mix was used as control. Further procedure was as described for micronucleus experiments, except with direct harvest after cannabinoid treatment without the incubation period with cytochalasin B. Two slides were evaluated with a Nikon Eclipse 55i fluorescent microscope for each experimental condition. The independent experiments were conducted three times.
The cells were counted in categories apoptosis, interphase, prophase, metaphase, anaphase-telophase, disturbed metaphase, and disturbed anaphase-telophase in 1000 cells. The mitotic index was calculated as a sum of the number of cells in prophase, metaphase, anaphase-telophase, disturbed metaphase, and disturbed anaphase-telophase in 1000 cells. Disturbed metaphase and disturbed anaphase-telophase were defined as deviating from the usual appearance of mitoses. Disturbed mitoses were assessed in 100 mitotic cells per slide.

[2] = system: human lymphoblastoid TK6 cells; assay: Kinetochore analysis of micronuclei; type: cell-based; conditions: 4 h
Description: For kinetochore analysis, cells were treated for 4 h with CBG 30 µM, CBD 15 µM, CBC 15 µM, CBDV 40 µM, and CBN 15 µM. The positive controls were MMS 40 µM, and vincristine sulphate 0.0121 µM; the solvent control was DMSO. After 4 h of treatment, the culture medium was renewed, and cells were exposed for 24 h to the cytokinesis inhibitor cytochalasin B (3 μg/mL). Then, cells were harvested, and slides were prepared with cytospin centrifugation. The cells were fixed in ice-cold methanol for 2 h. Kinetochores were stained overnight with undiluted primary anti-centromere antibody at 37 °C followed by 1:20 diluted FITC-conjugated secondary antibody at 37 °C for 2 h. Nuclei were counterstained with Hoechst 33,258 (5 µg/mL, 3 min). The experiment was performed one time. Per compound, 200 micronuclei were evaluated for kinetochore signal presence (Fig. 3). The evaluation was performed with a Keyence BZ-X800 microscope. The slides used in kinetochore evaluation were also evaluated for the number of induced micronuclei as described in the above paragraph cytokinesis‑block micronucleus assay.

[3] = system: TK6 cells; assay: Tubulin visualization; type: cell-based, human; conditions: 6 h; CBG 30 µM, CBD 15 µM, CBC 15 µM, CBN 15 µM; visually compared to control, not quantified
Description: For tubulin visualization, cells were treated with CBG 30 µM, CBD 15 µM, CBC 15 µM, CBDV 40 µM, and CBN 15 µM. The positive control was vincristine sulphate 0.0121 µM, and the solvent control was DMSO. Cells were treated for 6 h and then harvested. Slides were prepared with cytospin centrifugation. The cells were fixed in ice-cold methanol for 2 h. Following fixation, cells were permeabilized with 0.1% Tween20 in 1 × phosphate-buffered saline (PBS) for 5 min. Next, the anti-α-tubulin antibody was applied in 1:50 dilution. Antibody was diluted with 5% FCS in 1 × PBS. The antibody was incubated in a humid chamber at 4 °C for 24 h. Afterwards, the antibody was removed by washing slides twice with 0.5% Tween20 in 1 × PBS for 5 min. Nuclei were counterstained with Hoechst 33,258 (5 µg/mL, 3 min). The visualization was performed with a Keyence BZ-X800 microscope.

[4] = design: method as in Taylor et al. [2018]; conditions: oral solution of CBD, healthy adults, ref Taylor et al. [2018], cited from earlier work
[5] = system: human buccal cell line TR146; design: method as in Russo et al. ([2019]); conditions: ref Russo et al. ([2019]), cited from earlier work
[6] = system: human hepatoma cells; design: method as in Russo et al. ([2019]); conditions: 3 h of treatment, ref Russo et al. ([2019]); cited from earlier work
[7] = system: colon-derived cells; design: method as in Aviello et al. ([2012]); conditions: 24 h of treatment, ref Aviello et al. ([2012]); cited from earlier work
[8] = system: human lymphoblastoid TK6 cells; design: method as in Henderson et al. ([2023]); conditions: TK6, with and without metabolic activation 4 h, and 27 h without metabolic activation; ref Henderson et al. ([2023]); cited from earlier work
[9] = system: bone marrow or liver of rats; design: method as in European Medicine Agency (EMA) ([2019]); conditions: bone marrow or liver of rats after CBD treatment; ref European Medicine Agency (EMA) ([2019]); cited from earlier work
[10] = system: bone marrow of mice; design: method as in Zimmerman and Raj ([1980]); conditions: ref Zimmerman and Raj ([1980]); cited from earlier work
[11] = system: human gastric cancer, Sertoli and Leydig cells; design: method as in Zhang et al. [2019]; Li et al. [2022], [2023]; conditions: 24 h of treatment; upregulated p53, reduced CDK2 and cyclin E; ref Zhang et al. [2019]; Li et al. [2022], [2023]; cited from earlier work
[12] = system: human lymphoblastoid TK6 cells; assay: Cytokinesis-block micronucleus (CBMN) assay

With C=C(C)[C@@H]1CCC(C)=C[C@H]1c1c(O)cc(CCCCC)cc1O [CBD, cannabidiol] the Mitotic index [1] was “significantly decreased the mitotic index”, the “Kinetochore (+) MNi, %” value ([2]; of 200 micronuclei, CBG 30 µM, CBD 15 µM, CBC 15 µM, CBDV 40 µM, CBN 15 µM, MMS 40 µM, vincristine 0.0121 µM, one experiment) was 47% and the “Kinetochore (+) induced MNi” value ([2]; treatment – control (basal level of micronuclei subtracted), same concentrations) was 63.7%. The “Multipolar and monopolar tubulin aggregation” value [3] was “observed more frequently”, the “Mean plasma Cmax following a high-fat meal” value ([4]; high-fat meal) was 1628 ng/mL and the Cmax ([4]; high-fat meal, read-out: Mean plasma Cmax following a high-fat meal) was 5.2 µM. For the same compound, the “Mean plasma Cmax” value [4] was 335.4 ng/mL, the Cmax ([4]; read-out: Mean plasma Cmax) was 1.1 µM and the “DNA damage (comet assay)” value ([5]; TR146, after 3 and 24 h) was “damaged DNA”. For the same compound, the “Genotoxic properties with addition of liver enzymes (comet assay)” value ([5]; TR146, with liver enzymes) was “increased the genotoxic properties”, the Micronucleus induction [6] was “significant induction of micronuclei” and the “DNA damage (comet assay)” value [7] was “did not induce DNA damage”. The Micronucleus results [8] was “negative micronucleus results”, the “Micronucleus and comet assay in vivo” value [9] was “negative results” and the “Micronuclei in bone marrow in vivo” value [10] was “induction of micronuclei”. The Cell cycle effect [11] was “G1 phase cell cycle arrest”, the “BMDL (10th percentile)” value ([12]; 10th percentile of BMD50 estimation, 4 h, micronucleus data) was 2.1 µM and the “4 h BMD50” value ([12]; 50% increased relative genotoxicity vs controls, from micronucleus data, 4 h treatment, without S9, Bayesian BMD analysis) was 8.7 µM. For the same compound, the “BMDU (90th percentile)” value ([12]; 90th percentile of BMD50 estimation, 4 h, micronucleus data) was 21.1 µM, the “Number of micronuclei with S9 mix vs without” value ([12]; 4 h, CBG 30 µM, CBD 15 µM, CBC 15 µM, CBDV 40 µM, CBN 15 µM, 0.25% S9 mix) was “significant reduction in the number of micronuclei” and the Micronucleus induction ([12]; 4 h treatment, without metabolic activation, at least one concentration, vs solvent control) was “significant induction of micronuclei”.
